US20260356851A1, “TRICYCLIC COMPOUNDS AND USES THEREOF” (HUTCHMED LIMITED, priority 2023, published 2026)

Columns and labels:
Assay type in all cases: cell-based
[1] = target: T1, pERK1/2 (Thr202/Tyr204), NCI-1H441 (KRAS G12V) (Homo sapiens, UniProt P01116, G12V); assay: Assay of intracellular pERK1/2 (Thr202/Tyr204) phosphorylation in NCI-H441 cells (KRAS G12V); conditions: pERK1/2, 2 days, read-out: NCI-H441 (KRAS G12V) IC50
T1 construct: pERK1/2 HTRF read-out
Description: (§1) Example 2: Assay of intracellular pERK1/2 (Thr202/Tyr204)phosphorylation
(§2) 1. Reagents and materials: • pERK1/2 (Thr202/Tyr2O4) HIRE kit, Cisbio, Cat #64ERKPEH; • OptiPlate™-384-well plate, PerkinElmer, Cat #6007299; • 96-well plate, Coming, Cat #353072; • Instrument: EnVision2104, PerkinElmer; • Cell lines: NCI-1H358 (KRAS G12C), ATCC, CRL-5807; PANC-1 (KRAS G121D), ATCC, CRL-1469; NCI-1H441 (KRAS G12V), ATCC, HTB-174.
(§3) 2. Preparation of Reaction Solutions
(§4) • A test compound was dissolved in DMSO, diluted to 200.0 μM and further diluted 3-fold to prepare a series of test compounds at concentrations of 66.7, 22.2, 7.4, 2.5, 0.82, 0.27, 0.09 μM etc. Then 10 μL of the compound at different dilution concentrations was added to 190 μL of a DMEM medium to prepare a 10× test compound; • 1× cell lysis buffer: 4× cell lysis stock solution (provided by the kit) was diluted 4-fold with deionized water, and then 10% 100× blocking stock solution (provided by the kit) was added thereto. • pERK1/2 detection solution (prepared just before use): the pERK1/2 d2 antibody (provided by the kit) and pERK1/2 Cryptate antibody (provided by the kit) were diluted with the detection solution (provided by the kit) at a ratio of 1:1:38.
(§5) • Cells were inoculated into a 96-well plate (100 μL/well) at a density of 10000-12000/well. No cell was inoculated into a negative control well, and only the cell medium was added at 100 μL/well. The plate was placed in a cell incubator at 5% CO2 and 37° C. overnight. • 10 μL of the 10× test compound was added to the 100 μL cell culture 96-well plate; both the positive control well (that is, the control hole without chemical compound treatment) and the negative control well were charged with 10 μL of a 5% DMSO culture solution; and the plate was cultured in a cell incubator at 5% CO2 and 37° C. for 2 days. • The medium in the 96-well plate was removed; 50 μL of the 1× cell lysis buffer was added to each of the wells; the plate was placed in a microplate shaker; and lysis under shaking was carried out at 900 rpm at room temperature for 1 hour. • 16 μL of the lysis buffer in the 96-well plate was taken and transferred to a 384-well plate, followed by centrifugation at 1000 rpm for 30 s; then 4 μL of pERK1/2 detection solution was added to each well, followed by centrifugation at 1000 rpm for 30 s; and the 384-well plate was sealed with a sealing membrane and incubated at 25° C. on a low-speed shaker at 100 rpm in the dark for 2 hours. • The fluorescence value (RFU) of each well was detected on EnVision2104, with an emission wavelength 1 being 665 nm and an emission wavelength 2 being 615 nm.
(§6) Fluorescence ratio=fluorescence value665 nm/fluorescence value615 nm
(§7) Inhibition rate (%)=100−((fluorescence ratio of compound well−fluorescence ratio of negative control well)/(fluorescence ratio of positive control well−fluorescence ratio of negative control well))×100
(§8) wherein: • the fluorescence ratio of compound well refers to the fluorescence ratio of the well containing the test compounds; • the fluorescence ratio of negative control well refers to the fluorescence ratio of the cell-free control well; • the fluorescence ratio of positive control well refers to the fluorescence ratio of the cell well treated with 0.5% DMSO.
(§9) IC50 value: obtained by calculation using XL-Fit 5.0 software.

[2] = target: T2, pERK1/2 (Thr202/Tyr204), NCI-1H358 (KRAS G12C) (Homo sapiens, UniProt P01116, G12C); assay: Assay of intracellular pERK1/2 (Thr202/Tyr204) phosphorylation in NCI-H358 cells (KRAS G12C); conditions: pERK1/2, 2 days, read-out: NCI-H358 (KRAS G12C) IC50
T2 construct: pERK1/2 HTRF read-out
T2 sequence (P01116 1-188 isoform P01116-2 G12C): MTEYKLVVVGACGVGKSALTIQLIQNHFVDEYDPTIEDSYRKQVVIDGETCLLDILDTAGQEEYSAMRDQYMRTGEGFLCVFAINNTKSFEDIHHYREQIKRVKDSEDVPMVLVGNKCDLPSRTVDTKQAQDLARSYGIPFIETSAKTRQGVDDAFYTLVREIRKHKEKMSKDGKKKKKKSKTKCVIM
Description: as §1, §2, §3, §4, §5, §6, §7, §8, §9

[3] = target: T3, pERK1/2 (Thr202/Tyr204), PANC-1 (KRAS G121D) (Homo sapiens, UniProt P01116, G12D); assay: Assay of intracellular pERK1/2 (Thr202/Tyr204) phosphorylation in PANC-1 cells (KRAS G12D); conditions: pERK1/2, 2 days, read-out: PANC-1 (KRAS G12D) IC50
T3 construct: pERK1/2 HTRF read-out
T3 sequence (P01116 1-188 isoform P01116-2 G12D): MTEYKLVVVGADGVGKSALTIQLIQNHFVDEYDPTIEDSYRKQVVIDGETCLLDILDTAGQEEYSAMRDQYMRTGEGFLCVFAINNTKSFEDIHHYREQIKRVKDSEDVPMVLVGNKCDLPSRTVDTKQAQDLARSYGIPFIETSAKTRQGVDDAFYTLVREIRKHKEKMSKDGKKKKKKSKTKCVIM
Description: as §1, §2, §3, §4, §5, §6, §7, §8, §9

T1 sequence (P01116 1-188 isoform P01116-2 G12V): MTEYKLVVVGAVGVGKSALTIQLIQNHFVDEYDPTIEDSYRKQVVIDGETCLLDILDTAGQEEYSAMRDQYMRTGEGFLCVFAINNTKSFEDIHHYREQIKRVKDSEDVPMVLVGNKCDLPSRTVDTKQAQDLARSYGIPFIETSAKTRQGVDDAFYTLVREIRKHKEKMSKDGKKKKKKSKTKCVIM

Compound	IC50 [1] [nM]	IC50 [2] [nM]	IC50 [3] [nM]
Cc1c(C(F)(F)F)c(-c2nc3c4c(nc(OCC5(CN(C)CCO)CC5)nc4c2F)N(C(C)c2cccnc2N)[C@@H](C)CO3)c2cn[nH]c2c1F (stereo partly drawn) [Compound 394, (*)2-(((1-((((9S)-10-(1-(2-aminopyridin-3-yl)ethyl)-4-fluoro-5-(7-fluoro-6-methyl-5-(trifluoromethyl)-1H-indazol-4-yl)-9-methyl-9,10-dihydro-8H-7-oxa-1,3,6,10-tetraazacyclohepta[de]naphthalen-2-yl)oxy)methyl)cyclopropyl)methyl)(methyl)amino)ethan-1-ol]	2	1	36
[2H]C([2H])(Oc1nc2c3c(nc(-c4cc(N)c(F)c(C)c4C(F)(F)F)c(F)c3n1)OCCN2C(C)c1cccnc1N)[C@@H]1C[C@@H](F)CN1C([2H])([2H])[2H] (some centres unmarked) [Compound 149]	0.9	0.3	7
Cc1cc(N)cc(-c2nc3c4c(nc(OC[C@@]56CCCN5C[C@H](F)C6)nc4c2F)N(C(C)c2cccnc2N)[C@@H](C)CO3)c1C(F)(F)F (some centres unmarked) [Compound 262]	47	28	40
CC(c1cccnc1N)N1CCOc2nc(-c3cc(N)cc(Cl)c3C(F)(F)F)c(F)c3nc(OC[C@@H]4CCCN4C)nc1c23 (single isomer, unassigned) [Compound 98, 3-((R or S)-1-(5-(5-amino-3-chloro-2-(trifluoromethyl)phenyl)-4-fluoro-2-(((S)-1-methylpyrrolidin-2-yl)methoxy)-8,9-dihydro-10H-7-oxa-1,3,6,10-tetraazacyclohepta[de]naphthalen-10-yl)ethyl)pyridin-2-amine]	0.5	0.3	10
Cc1cc(N)cc(-c2nc3c4c(nc(OC[C@]56CCCN5[C@@H](CO)CC6)nc4c2F)N(C(C)c2cccnc2N)CCO3)c1C(F)(F)F (single isomer, unassigned) [Compound 101, ((3R,7aR)-7a-(((5-(5-amino-3-methyl-2-(trifluoromethyl)phenyl)-10-((R or S)-1-(2-aminopyridin-3-yl)ethyl)-4-fluoro-9,10-dihydro-8H-7-oxa-1,3,6,10-tetraazacyclohepta[de]naphthalen-2-yl)oxy)methyl)hexahydro-1H-pyrrolizin-3-yl)methanol]	> 100	> 100	> 100
Cc1cc(F)c2sc(N)nc2c1-c1nc2c3c(nc(OC[C@@]45CCCN4C[C@H](F)C5)nc3c1F)N(C(C)c1cccnc1N)[C@@H](C)CO2 (some centres unmarked) [Compound 340]	4	2	39
CC(c1cccnc1N)N1CCOc2nc(-c3cc(N)c(F)cc3C(F)(F)F)c(F)c3nc(OC[C@@]45CCCN4C[C@H](F)C5)nc1c23 (some centres unmarked) [Compound 135]	3	2	30
Cc1ccc(C(C)N2CCOc3nc(-c4cc(N)c(F)c(C)c4C(F)(F)F)c(F)c4nc(OC[C@@]56CCCN5C[C@H](F)C6)nc2c34)c(N)n1 (single isomer, unassigned) [Compound 252, 3-((R or S)-1-(5-(5-amino-4-fluoro-3-methyl-2-(trifluoromethyl)phenyl)-4-fluoro-2-(((2R,7aS)-2-fluorotetrahydro-1H-pyrrolizin-7a(5H)-yl)methoxy)-8,9-dihydro-10H-7-oxa-1,3,6,10-tetraazacyclohepta[de]naphthalen-10-yl)ethyl)-6-methylpyridin-2-amine]		> 100	
Cc1cc(N)cc(-c2nc3c4c(nc(OC[C@@]56CCCN5C[C@H](F)C6)nc4c2F)N(C(C)c2cccnn2)CCO3)c1C(F)(F)F (single isomer, unassigned) [Compound 128, 3-(4-fluoro-2-(((2R,7aS)-2-fluorotetrahydro-1H-pyrrolizin-7a(5H)-yl)methoxy)-10-((R or S)-1-(pyridazin-3-yl)ethyl)-9,10-dihydro-8H-7-oxa-1,3,6,10-tetraazacyclohepta[de]naphthalen-5-yl)-5-methyl-4-(trifluoromethyl)aniline]		> 100	

The remaining lines, values ahead:

IC50 [1] [nM]	IC50 [2] [nM]	IC50 [3] [nM]	Compound
3	2	24	[2H]C([2H])(Oc1nc2c3c(nc(-c4cc(N)c(F)c(C)c4C(F)(F)F)c(F)c3n1)OCCN2C(C)c1cccnc1N)[C@@H]1CCC([2H])([2H])N1C([2H])([2H])[2H] (some centres unmarked) [Compound 104]
> 100	43	> 100	Cc1c(F)c(N)cc(-c2nc3c4c(nc(OC[C@@]56CCCN5C[C@H](F)C6)nc4c2F)N(C(C)c2ccc[n+]([O-])c2N)CCO3)c1C(F)(F)F (some centres unmarked) [Compound 226]
0.5	0.1	1	Cc1c(F)c(N)cc(-c2nc3c4c(nc(OC[C@@]56CCCN5C/C(=C\F)C6)nc4c2F)N(C(C)c2cccnc2N)CCO3)c1C(F)(F)F (some centres unmarked) [Compound 230]
> 100	> 100	> 100	Cc1cc(Nc2nc3c4c(nc(OC[C@@]56CCCN5C[C@H](F)C6)nc4c2F)N(C(C)c2cccnc2N)CCO3)c(F)cc1C(F)(F)F (some centres unmarked) [Compound 162]
> 100	> 100	> 100	Cc1cc(N)cc(-c2nc3c4c(nc(OC[C@@H]5C[C@@H](F)CN5C)nc4c2F)N(C(C)c2cccnc2N)CCO3)c1C(F)(F)F (single isomer, unassigned) [Compound 81, 3-((R or S)-1-(5-(5-amino-3-methyl-2-(trifluoromethyl)phenyl)-4-fluoro-2-(((2S,4R)-4-fluoro-1-methylpyrrolidin-2-yl)methoxy)-8,9-dihydro-10H-7-oxa-1,3,6,10-tetraazacyclohepta[de]naphthalen-10-yl)ethyl)pyridin-2-amine]
> 100	> 100	> 100	CCc1c(F)ccc2cc(O)cc(-c3nc4c5c(nc(OC[C@@]67CCCN6C[C@H](F)C7)nc5c3F)N(C(C)c3ccccc3N)[C@@H](C)CO4)c12 (some centres unmarked) [Compound 298]
1	0.3	11	CC(c1cccnc1N)N1CCOc2nc(-c3cc(N)c(F)c(Cl)c3C(F)(F)F)c(F)c3nc(OC[C@@H]4C[C@@H](F)CN4C)nc1c23 (some centres unmarked) [Compound 205]
> 100	> 100	> 100	Cc1c(F)c(N)cc(-c2nc3c4c(nc(OC[C@@]56CCCN5C[C@H](F)C6)nc4c2F)N(C(C)c2cccnc2N)C[C@H](C)O3)c1C(F)(F)F (single isomer, unassigned) [Compound 253, 3-((R or S)-1-((S)-5-(5-amino-4-fluoro-3-methyl-2-(trifluoromethyl)phenyl)-4-fluoro-2-(((2R,7aS)-2-fluorotetrahydro-1H-pyrrolizin-7a(5H)-yl)methoxy)-8-methyl-8,9-dihydro-10H-7-oxa-1,3,6,10-tetraazacyclohepta[de]naphthalen-10-yl)ethyl)pyridin-2-amine]
